Measurements published in US11970452B2, “Modulators of mas-related G-protein receptor X2 and related products and methods” (Escient Pharmaceuticals, Inc., priority 2020, dated 2024).

Tests used:
Human LAD2 cells = experiment: Mast Cell Beta-Hexosaminidase Release Assay (versus 500 nM Cortistatin-14); format: cell-based; conditions: 500 nM Cortistatin-14 agonist, read-out: MRGPR2 Antagonist Activity
Procedure: Human LAD2 cells (NIH) were maintained in an incubator at 37° C. with 5% CO2 and cultured in StemPro-34 serum-free media (Gibco 10639011) supplemented with 2 mM L-glutamine, 100 U/ml penicillin, […] streptomycin and 100 ng/ml SCF (Invitrogen PEP0860), at a concentration of 2-5×10^5 cells/mL, with hemidepletion every 1-2 weeks.
Cells were transferred to SCF-Free medium at 2.5×10^5 cells/mL and kept in an incubator overnight. On the day of the assay, cells were washed twice in Assay Buffer (final concentrations 10 mM HEPES, 137 mM NaCl, 5.6 mM D-glucose, 2.7 mM KCl, 1 mM MgCl, 1.8 mM CaCl2, 0.4 mM Na2HPO4.7H2O, 0.04% BSA, pH=7.4) and plated in a 96-well v-bottom plate at 20,000 cells per well in 80 μL Assay Buffer. Antagonist compounds solubilized at 10 mM in DMSO were diluted in Assay Buffer to 10× final desired concentrations as a 10-point curve (10 μM final top concentration with 1:3 serial dilutions) and 10 μL added per well. Plates were then incubated for 1 hour at 37° C. Agonists were diluted in Assay Buffer to 10× desired concentrations and 10 μL of the appropriate agonist added to each well. The final concentration of Cortistatin-14 (Tocris 3374) used in antagonist assays was 500 nM. Final concentrations of DMSO were kept consistent across the plate. Plates were then incubated in a warm air oven for 30 minutes at 37° C., followed by centrifugation at 4° C. for 5 minutes at 450×g. 50 μL supernatant from each well was then transferred to a 96-well flat bottom plate containing 100 μL substrate solution per well (3.5 mg/mL p-Nitrophenyl-N-acetyl-β-D-glucosaminide (Sigma 487052) in Citrate Buffer containing a final concentration of 40 mM Citric Acid, 20 mM Na2HPO4.7H2O, pH=4.5). To the cell pellets left in the remaining assay buffer, 150 μL 0.1% Triton-X-100 was then added to each well, resuspended by pipetting up and down, and 50 μL cell lysates transferred to a second 96-well flat bottom plate containing 100 μL substrate solution per well. Plates containing transferred supernatant and cell lysates were then incubated in a warm air oven for 90 minutes at 37° C. After incubation, 50 μL of 400 mM Glycine buffer (pH 10.7) was added into each well and the plate was read on a Molecular Devices SpectraMax iD5 plate reader (absorbance at 405 nm with reference filter at 620 nm). After background subtraction, the percentage degranulation (percent beta-hexosaminidase release) was calculated as 100×(supernatant values)/(supernatant+lysate values), followed by analysis using GraphPad Prism software to calculate an IC50 value for each compound.
(§1) The activity ranges are denoted as follows: “+++++” denotes antagonist activity <100 nM; “++++” denotes antagonist activity between 100 and 500 nM; “+++” denotes activity between 501 and 1000 nM; “++” denotes activity between 1001 and 2500 nM; and “+” denotes activity >2500 nM

human MRGPRX2 = biological target: T1, human MRGPRX2 (Homo sapiens, UniProt Q96LB1); experiment: MRGPRX2 activity: IP-One HTRF antagonist assay versus 0.3 uM Cortistatin 14; format: cell-based; conditions: CHO cells expressing human MRGPRX2; IP-1 HTRF; versus 0.3 uM Cortistatin 14 agonist; read-out: MRGPR2 Antagonist Activity
T1 construct: expressed in transfected cells
T1 sequence (Q96LB1 1-330): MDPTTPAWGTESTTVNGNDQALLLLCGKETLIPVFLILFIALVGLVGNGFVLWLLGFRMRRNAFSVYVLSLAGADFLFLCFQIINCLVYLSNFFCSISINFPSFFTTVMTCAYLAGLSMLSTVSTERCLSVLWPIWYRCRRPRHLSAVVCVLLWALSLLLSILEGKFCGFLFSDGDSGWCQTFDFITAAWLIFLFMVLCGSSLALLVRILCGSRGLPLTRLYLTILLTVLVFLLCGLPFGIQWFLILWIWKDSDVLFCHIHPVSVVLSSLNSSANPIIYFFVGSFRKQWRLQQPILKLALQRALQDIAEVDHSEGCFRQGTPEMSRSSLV
Procedure: CHO cells stably transfected to express human MRGPRX2 were maintained in an incubator at 37° C. with 5% CO2 and grown in F12 (HAM) media with 10% fetal bovine serum (FBS), 1% Glutamax, 1% penicillin/streptomycin, 800 μg/mL Geneticin (G418), and 300 μg/mL Hygromycin B.
Cells were plated in a […] assay plate at 20,000 cells per well in 12 μL of Opti-MEM and kept in an incubator overnight. On the day of the assay, compounds solubilized at 10 mM in DMSO were added as a 10-point curve (30 uM final top concentration with 1:3 serial dilutions) using a Tecan D300E digital dispenser. Agonists were diluted in assay buffer (final concentrations of 5.7 mM Tris-HCl, 43 mM NaCl, 50 mM LiCl, pH=8) and 2 μL of the agonist Cortistatin 14 (CPC Scientific, catalog CORT-002) are added to each well. Final concentrations of agonists were 0.3 μM Cortistatin. Final concentrations of DMSO were kept consistent across the plate. Plates were incubated in the dark for 1 h at 37° C. and then for 1 h at room temperature. IP-1 standards and HTRF detection reagents were added according to the IP-One-Gq Kit purchased from Cisbio (part number 62IPAPEJ) and incubated in the dark for 1 h at room temperature. The plate was read on a Molecular Devices SpectraMax iD5 plate reader. The HTRF ratio was calculated from the raw data and graphed using GraphPad Prism to calculate an IC50 value for each compound.
as §1

Row | SMILES | IC50 (Human LAD2 cells) [nM] | IC50 (human MRGPRX2) [nM]
1 | O=C(N[C@H]1CC[C@@H](Nc2cc(C(F)(F)F)nc3ccc(F)cc23)CC1)c1ccc(F)cc1 [1-4, 4-fluoro-N-[(1s,4s)-4-{[6-fluoro-2-(trifluoromethyl)quinolin-4-yl]amino}cyclohexyl]benzamide] | 100 to 500 | 
2 | O=C(N[C@H]1CC[C@@H](Nc2cc(C(F)(F)F)nc3ccc(Cl)cc23)CC1)c1ccc(F)cc1 [1-5, 4-fluoro-N-[(1s,4s)-4-{[6-chloro-2-(trifluoromethyl)quinolin-4-yl]amino}cyclohexyl]benzamide] | 100 to 500 | 
3 | O=C(N[C@H]1CC[C@@H](Nc2nc(C(F)(F)F)nc3ccccc23)CC1)c1ccc(F)cc1 [1-7, 4-fluoro-N-[(1s,4s)-4-{[2-(trifluoromethyl)quinazolin-4-yl]amino}cyclohexyl]benzamide] | 501 to 1000 | 

Now from value to compound:

Row | IC50 (Human LAD2 cells) [nM] | IC50 (human MRGPRX2) [nM] | SMILES
4 | 100 to 500 |  | O=C(N[C@H]1CC[C@@H](Nc2cc(C(F)(F)F)nc3ccccc23)CC1)c1ccc(Cl)cc1 [3-10]
5 | 100 to 500 | 100 to 500 | CN(C)c1ccc(C(=O)N[C@H]2CC[C@@H](Nc3cc(C(F)(F)F)nc4ccccc34)CC2)cc1 [3-25]
6 | 501 to 1000 | 100 to 500 | O=C(N[C@H]1CC[C@@H](Nc2cc(C(F)(F)F)nc3ccccc23)CC1)c1ccccc1 [3-30]
7 | 100 to 500 | < 100 | CC(=O)Nc1cccc(C(=O)N[C@H]2CC[C@@H](Nc3cc(C(F)(F)F)nc4ccc(Cl)cc34)CC2)c1 [4-7]
8 | < 100 |  | CNc1ccc(C(=O)N[C@H]2CC[C@@H](Nc3cc(C(F)(F)F)nc4ccc(Cl)cc34)CC2)cc1 [4-9]
9 | < 100 |  | O=C(N[C@H]1CC[C@@H](Nc2cc(C(F)(F)F)nc3ccc(Cl)cc23)CC1)c1ccnc2[nH]ccc12 [4-139]
10 | 501 to 1000 |  | N#Cc1cccc(C(=O)N[C@H]2CC[C@@H](Nc3nc(C(F)(F)F)nc4ccccc34)CC2)c1 [4-288]
